Data from ChEMBL document CHEMBL6182887, “Chemical modification of monensin as a source of potent antiplasmodial agents” (Bioorg Med Chem, 2025).

Assays:
Plasmodium berghei [1] = assay: (§1) Antiplasmodial activity against hepatic stage luciferase-expressing Plasmodium berghei sporozoites infected in human Huh-7 cells assessed as reduction in parasite burden preincubated for 1 hrs followed by infection and measured after 46 hrs by […]; format: functional, organism-based
[2] = Cytotoxicity against human Huh-7 cells assessed as reduction in cell viability incubated for 46 hrs by AlamarBlue dye based fluorescence analysis; format: toxicity
[3] = Selectivity index, ratio of CC50 for cytotoxicity against human Huh-7 cells to IC50 for antiplasmodial activity against hepatic stage luciferase-expressing Plasmodium berghei sporozoites infected in human Huh-7 cells; format: toxicity, cell-based; settings: read-out: Ratio CC50/IC50
Plasmodium berghei [4] = assay: as §1, with “Potency index, ratio of monensin IC50 to test compound IC50 for antiplasmodial” for “Antiplasmodial”; format: functional; settings: time 47 hrs
Plasmodium falciparum = assay: Antiplasmodial activity against Plasmodium falciparum; format: functional, organism-based

Row | SMILES | IC50 (Plasmodium berghei [1]) [nM] | CC50 at 46 h [2] [nM] | selectivity ratio [3] | Ratio IC50 (Plasmodium berghei [4]) | IC50 (Plasmodium falciparum) [nM]
1 | CC[C@@]1([C@@H]2O[C@@H]([C@H]3O[C@@](O)(COC(=O)Nc4ccccc4)[C@H](C)C[C@@H]3C)C[C@@H]2C)CC[C@H]([C@]2(C)CC[C@]3(C[C@H](O)[C@@H](C)[C@@H]([C@@H](C)[C@@H](OC)[C@H](C)C(=O)O)O3)O2)O1 | 0.7 | 3100 | 4430 | ~8 | 
2 | CC[C@@]1([C@@H]2O[C@@H]([C@H]3O[C@@](O)(CNC(=O)c4ccccc4)[C@H](C)C[C@@H]3C)C[C@@H]2C)CC[C@H]([C@]2(C)CC[C@]3(C[C@H](O)[C@@H](C)[C@@H]([C@@H](C)[C@@H](OC)[C@H](C)C(=O)O)O3)O2)O1 | 6.4 | 8400 | 1310 |  | 
3 | CC[C@@]1([C@@H]2O[C@@H]([C@H]3O[C@@](O)(COS(=O)(=O)c4ccc(C)cc4)[C@H](C)C[C@@H]3C)C[C@@H]2C)CC[C@H]([C@]2(C)CC[C@]3(C[C@H](O)[C@@H](C)[C@@H]([C@@H](C)[C@@H](OC)[C@H](C)C(=O)O)O3)O2)O1 |  |  |  |  | 1.52
4 | CC[C@@]1([C@@H]2O[C@@H]([C@H]3O[C@@](O)(CO)[C@H](C)C[C@@H]3C)C[C@@H]2C)CC[C@H]([C@]2(C)CC[C@]3(C[C@H](O)[C@@H](C)[C@@H]([C@@H](C)[C@@H](OC)[C@H](C)C(=O)OCCCC[P+](c4ccccc4)(c4ccccc4)c4ccccc4)O3)O2)O1 | 623 | 5800 | 9.3 |  | 
5 | CC[C@@]1([C@@H]2O[C@@H]([C@H]3O[C@@](O)(CNC(=O)CCC[P+](c4ccccc4)(c4ccccc4)c4ccccc4)[C@H](C)C[C@@H]3C)C[C@@H]2C)CC[C@H]([C@]2(C)CC[C@]3(C[C@H](O)[C@@H](C)[C@@H]([C@@H](C)[C@@H](OC)[C@H](C)C(=O)O)O3)O2)O1 | 1490 | 75300 | 50.6 |  | 
6 | CC[C@@]1([C@@H]2O[C@@H]([C@H]3O[C@@](O)(CO)[C@H](C)C[C@@H]3C)C[C@@H]2C)CC[C@H]([C@]2(C)CC[C@]3(C[C@H](O)[C@@H](C)[C@@H]([C@@H](C)[C@@H](OC)[C@H](C)C(=O)O)O3)O2)O1 [MONENSIN] | 5.5 | 17500 | 3180 |  | 2.46
7 | COc1cc(NC(C)CCCN)c2ncccc2c1 (configuration not stated) [PRIMAQUINE] |  | 139000 | 16.4 |  | 
8 | CC[C@@]1([C@@H]2O[C@@H]([C@H]3O[C@@](O)(CNC(=O)Nc4ccccc4)[C@H](C)C[C@@H]3C)C[C@@H]2C)CC[C@H]([C@]2(C)CC[C@]3(C[C@H](O)[C@@H](C)[C@@H]([C@@H](C)[C@@H](OC)[C@H](C)C(=O)O)O3)O2)O1 | 2.9 | 4200 | 1450 |  | 
9 | CC[C@@]1([C@@H]2O[C@@H]([C@H]3O[C@@](O)(CO)[C@H](C)C[C@@H]3C)C[C@@H]2C)CC[C@H]([C@]2(C)CC[C@]3(C[C@H](O)[C@@H](C)[C@@H]([C@@H](C)[C@@H](OC)[C@H](C)C(=O)OCc4ccccc4)O3)O2)O1 | 81.6 | 31300 | 384 |  | 
10 | CC[C@@]1([C@@H]2O[C@@H]([C@H]3O[C@@]4(COC(=O)O4)[C@H](C)C[C@@H]3C)C[C@@H]2C)CC[C@H]([C@]2(C)CC[C@]3(C[C@H](O)[C@@H](C)[C@@H]([C@@H](C)[C@@H](OC)[C@H](C)C(=O)O)O3)O2)O1 |  |  |  |  | 1.08
